Like-named read-outs stand apart in the source and are kept apart here.
Assays:
[1] = test system: animal models of noninsulin-dependent diabetes; conditions: animal models of noninsulin-dependent diabetes (rats, monkeys, hamsters); cited from earlier work
[2] = Solubility of β-GPA; format: physicochemical
[3] = β-GPA plasma pharmacokinetics after RGX-202 BID dosing; format: in vivo, human; conditions: for AUC(0-t): read-out: Average AUC0-24
Method: Method: Subjects were administered RGX-202 (a highly compressible salt form of β-GPA) in a regimen of 600 mg BID, 1,200 mg BID, 2,400 mg BID, or 3,600 mg BID, and plasma samples were taken from the subjects and tested using the protocol described below for levels of β-GPA over the course of 24 hours after administration.
The analyte, β-GPA, and internal standard (IS), [13C415N3]-β-GPA, are extracted from 50.0 μL of human plasma by a protein precipitation extraction procedure. The extraction procedure begins with the addition of 50.0 μL of internal standard working solution to all wells except double blanks, which receive 50.0 μL of water. Next the plate is covered and vortexed. Then 500 μL of acetonitrile/methanol (50/50, v/v) is added to all wells. Next the plate is covered, vortexed and centrifuged. Using a Tomtec Quadra 4, 200 μL of the supernatant is transferred into a new plate. Then 300 μL acetonitrile/methanol (50/50, v/v) is added to all wells. The plate is then sealed and vortexed. The extracts are chromatographed under reverse phase conditions on a Luna HPLC column 50×2.0 mm, 3 μm column using a gradient system with 10 mM ammonium acetate in water and acetonitrile. The compounds are detected and quantified by tandem mass spectrometry in positive ion mode on a MDS Sciex API 4000 equipped with a Turbo Ionspray® interface.

[4] = test system: liver metastasis in gastrointestinal cancers; conditions: particularly liver metastasis in gastrointestinal cancers; WO2014/071067; cited from earlier work
[5] = test system: advanced gastrointestinal tumors; test: RGX-202 monotherapy or combination with FOLFIRI in subjects with advanced gastrointestinal tumors; format: in vivo, human
Method: Method: Subjects with advanced gastrointestinal tumors (e.g., locally advanced and unresectable, or metastatic) were administered multiple doses of orally administered RGX-202 as a monotherapy or in combination with irinotecan, folinic acid, and fluorouracil. In the monotherapy arm of the study, RGX-202 was administered orally twice or three times daily on days 1-28 of each 28-day cycle. The dose regimen was dependent on the cohort in which the patient was enrolled. In the combination arm of the study, RGX-202 was administered in the same way as described for the monotherapy arm in combination with FOLFIRI. FOLFIRI was administered by intravenous administration of irinotecan (180 mg/m^2) over 90 minutes concurrently with intravenous administration of folinic acid (400 mg/m^2) over 2 hours, followed by fluorouracil (5-FU) (400 mg/m^2) intravenous bolus and then 5-FU (2400 mg/m^2) intravenous infusion over 46 hours, on days 1 and 15 of each 28-day cycle. During the dose escalation, subjects were evaluated for pharmacokinetics (using the method as described in Example 1), pharmacodynamics, safety, and efficacy of the drug.

[6] = 1200 mg BID, human plasma, 1,200 mg BID
[7] = 2400 mg BID, human plasma, 2,400 mg BID
[8] = 3600 mg BID, human plasma, 3,600 mg BID

For N=C(N)NCCC(=O)O [β-GPA, β-Guanidinopropionic acid], the effect on hyperglycemia [1] is listed as “ameliorate hyperglycemia”, the “solubility in organic solvents” value ([2]; organic solvents) is listed as “low solubility” and the solubility ([2]; water) is listed as > 50 mg/mL. The Cmax [3, 6] was 4790 ng/mL, the AUC(0-t) [3, 6] was 45.2 µg·h/mL and the Cmax [3, 7] was 26800 ng/mL. It also gave an AUC(0-t) [3, 7] of 165 µg·h/mL, a Cmax [3, 8] of 47700 ng/mL and an AUC(0-t) [3, 8] of 241 µg·h/mL. For the same molecule, the “AUC Dose Acc. Ratio” value ([3]; human plasma, 600 mg BID) was 1.0, the Cmax ([3]; human plasma, 600 mg BID) was 1400 ng/mL and the “Cmax Dose Acc. Ratio” value ([3]; human plasma, 600 mg BID) was 1.0. The “Dose Normalized Average Cmax” value ([3]; human plasma, 600 mg BID) was 1.2 ng/mL, the “Dose-Normalized Average AUC0-24” value ([3]; human plasma, 600 mg BID) was 13.1 ng·h/mL and the AUC(0-t) ([3]; human plasma, 600 mg BID) was 15.7 µg·h/mL. For the same molecule, the “AUC Dose Acc. Ratio” value ([3]; human plasma, 1,200 mg BID) was 1.4, the “Cmax Dose Acc. Ratio” value ([3]; human plasma, 1,200 mg BID) was 1.7 and the “Dose Normalized Average Cmax” value ([3]; human plasma, 1,200 mg BID) was 2.0 ng/mL. The “Dose-Normalized Average AUC0-24” value ([3]; human plasma, 1,200 mg BID) was 18.8 ng·h/mL, the “AUC Dose Acc. Ratio” value ([3]; human plasma, 2,400 mg BID) was 2.7 and the “Cmax Dose Acc. Ratio” value ([3]; human plasma, 2,400 mg BID) was 4.8. For the same molecule, the “Dose Normalized Average Cmax” value ([3]; human plasma, 2,400 mg BID) was 5.6 ng/mL, the “Dose-Normalized Average AUC0-24” value ([3]; human plasma, 2,400 mg BID) was 34.3 ng·h/mL and the “AUC Dose Acc. Ratio” value ([3]; human plasma, 3,600 mg BID) was 2.6. For the same molecule, the “Cmax Dose Acc. Ratio” value ([3]; human plasma, 3,600 mg BID) was 5.7, the “Dose Normalized Average Cmax” value ([3]; human plasma, 3,600 mg BID) was 6.6 ng/mL and the “Dose-Normalized Average AUC0-24” value ([3]; human plasma, 3,600 mg BID) was 33.5 ng·h/mL. For the same molecule, the suppression of metastasis [4] was “effective”.

In the case of [H]/N=C(\N)NCCC(=O)O [RGX-202], the “subjects exhibiting a partial response” value ([5]; of the 10 subjects who received the monotherapy, at 3,600 mg BID after 40 weeks) is reported as “one”, the “subjects exhibiting stable disease” value ([5]; of the 10 subjects who received the monotherapy, at doses of 1,200 mg BID, 2,400 mg BID and 3,600 mg BID) is reported as “three” and the objective activity ([5]; subjects with advanced gastrointestinal tumors) is reported as “activities were observed”. For the same molecule, the dose limiting toxicity ([5]; subjects with advanced gastrointestinal tumors, oral dose escalation, monotherapy or combination) was “did not exhibit dose limiting toxicity”.
